Test results: ChEMBL document CHEMBL1201862, “PubChem BioAssay data set” (2004)
The source made the active and inactive calls.

Legend:
[1] = biological target: Mu-type opioid receptor (Homo sapiens, UniProt P35372); type: functional, cell-based;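 further: U2OS cells with beta-arrestin recruitment to OPRM1 by beta-gal complementation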
[2] = biological target: 5-hydroxytryptamine receptor 2A (Mus musculus, UniProt P35363); type: functional, cell-based;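 further: CHO-K1 cells with tagged receptor and beta-arrestin; agonist potency measured as compound-induced activation of the receptor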
Sequence of 5-hydroxytryptamine receptor 2A (P35363 whole entry): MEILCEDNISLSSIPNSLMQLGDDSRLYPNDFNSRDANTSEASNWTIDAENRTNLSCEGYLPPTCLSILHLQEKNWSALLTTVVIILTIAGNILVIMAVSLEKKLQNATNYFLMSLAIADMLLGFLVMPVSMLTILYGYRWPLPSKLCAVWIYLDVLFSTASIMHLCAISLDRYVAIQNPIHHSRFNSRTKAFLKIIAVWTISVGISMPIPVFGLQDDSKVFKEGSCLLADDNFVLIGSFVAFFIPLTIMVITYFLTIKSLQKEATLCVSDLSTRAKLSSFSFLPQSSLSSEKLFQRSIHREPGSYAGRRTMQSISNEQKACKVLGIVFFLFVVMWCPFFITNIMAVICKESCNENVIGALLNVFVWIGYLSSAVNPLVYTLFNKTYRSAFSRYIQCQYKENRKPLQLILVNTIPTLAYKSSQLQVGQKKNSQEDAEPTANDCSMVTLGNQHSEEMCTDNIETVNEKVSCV

[3] = Luminescence Cell-Based Dose Confirmation HTS to Identify Inhibitors of Platelet Dense Granule Release. [Related pubchem assays: 1663 (Primary HTS), 1678 (Summary of Project)]; type: functional
[4] = biological target: Luciferin 4-monooxygenase (Photinus pyralis, UniProt P08659); assay: firefly luciferase enzyme inhibitors, dose response, biochemical, luminescence (AID 1891)
Sequence of Luciferin 4-monooxygenase (P08659 whole entry, the tested form may be a part): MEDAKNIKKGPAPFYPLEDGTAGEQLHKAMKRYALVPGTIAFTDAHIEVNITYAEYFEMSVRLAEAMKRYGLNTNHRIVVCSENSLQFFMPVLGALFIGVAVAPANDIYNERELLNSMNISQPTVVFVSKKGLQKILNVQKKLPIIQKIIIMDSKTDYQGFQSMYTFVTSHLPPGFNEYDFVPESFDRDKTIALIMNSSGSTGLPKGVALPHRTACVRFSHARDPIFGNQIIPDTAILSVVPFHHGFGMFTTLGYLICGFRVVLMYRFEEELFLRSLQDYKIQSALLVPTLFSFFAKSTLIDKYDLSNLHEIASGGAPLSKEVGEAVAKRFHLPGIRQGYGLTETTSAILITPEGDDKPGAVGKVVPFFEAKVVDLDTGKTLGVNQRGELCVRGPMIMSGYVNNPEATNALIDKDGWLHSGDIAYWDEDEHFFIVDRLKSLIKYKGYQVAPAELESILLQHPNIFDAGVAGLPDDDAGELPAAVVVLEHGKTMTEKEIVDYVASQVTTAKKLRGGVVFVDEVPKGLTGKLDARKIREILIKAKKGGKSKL

[5] = off-target signal loss in HeLa-CEM21 co-culture – HeLa F-luc CTL cells, cherry-picked, counter-screen for HIV-1 Env fusion inhibitor project, dose response (AID 652040); type: functional, cell-based;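 further: potency for signal decrease marking cytotoxic or nonspecific inhibition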
[6] = test system: INS1; assay: beta cell apoptosis inhibitors, cytokine rescue, dose response, luminescence, retest (AID 449756); type: functional, cell-based; settings: Rattus norvegicus;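 further: cell death triggered by IL-1 beta plus TNF-alpha plus IFN-gamma mixture; protective hits raise ATP signal compared with cytokine alone wells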
[7] = A Cell Based Secondary Assay To Explore Cytotoxicity of Compounds that Sensitize Mycobacterium Tuberculosis to Beta-Lactam Antibiotics.; type: functional
[8] = test system: BJ; assay: cytotoxicity toward BJ-TERT fibroblasts, dose response, cell-based, RAS-independent, luminescence (AID 1933); type: functional; settings: Homo sapiens
[9] = test system: BJ; assay: cytotoxicity toward BJ-TERT-LT-ST fibroblasts, dose response, cell-based, RAS-independent, luminescence (AID 1935); type: functional; settings: Homo sapiens;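 further: BJ fibroblasts immortalized with TERT plus LT and ST oncogenes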
[10] = cytotoxicity toward DRD oncogenic fibroblasts, dose response, cell-based, non-viral oncogenic, luminescence (AID 1934); type: functional; settings: Homo sapiens
[11] = inhibitors of clade B AD8 Env fusion, dose response, cell-based, cherry-pick (AID 652062); type: functional;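 further: luciferase signal from cell-cell fusion driven by HIV-1 clade B AD8 Env; potency is for inhibitors of fusion seen as a drop in luminescence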
[12] = inhibitors of HIV Env-driven cell fusion, dose response, cherry-pick (AID 652057); type: functional, cell-based
[13] = test system: BJ; assay: cells; type: functional, cell-based; settings: Homo sapiens
[14] = test system: BJ; assay: cytotoxicity toward Ras-transformed BJeLR fibroblasts, dose response, cell-based, alamar blue fluorescence, cherrypicked samples (AID 2631); type: functional; settings: Homo sapiens;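 further: confirmatory dose-response assay in RAS-dependent BJ fibroblasts engineered with TERT, LT and ST, with cytotoxicity read by fluorescence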
[15] = CEM21 lymphoblast cell cytotoxicity, dose response, cytotoxicity control for viral fusion inhibitor project, CellTiter-Glo luminescence, cherry-picked (AID 652042); type: functional, cell-based;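 further: potency for signal decrease meaning cytotoxicity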
[16] = biological target: T1, Methionyl-tRNA synthetase, putative (Trypanosoma brucei brucei, UniProt Q38C91); type: functional, Trypanosoma brucei brucei strain 927/4 GUTat10.1
T1 sequence (Q38C91 whole entry): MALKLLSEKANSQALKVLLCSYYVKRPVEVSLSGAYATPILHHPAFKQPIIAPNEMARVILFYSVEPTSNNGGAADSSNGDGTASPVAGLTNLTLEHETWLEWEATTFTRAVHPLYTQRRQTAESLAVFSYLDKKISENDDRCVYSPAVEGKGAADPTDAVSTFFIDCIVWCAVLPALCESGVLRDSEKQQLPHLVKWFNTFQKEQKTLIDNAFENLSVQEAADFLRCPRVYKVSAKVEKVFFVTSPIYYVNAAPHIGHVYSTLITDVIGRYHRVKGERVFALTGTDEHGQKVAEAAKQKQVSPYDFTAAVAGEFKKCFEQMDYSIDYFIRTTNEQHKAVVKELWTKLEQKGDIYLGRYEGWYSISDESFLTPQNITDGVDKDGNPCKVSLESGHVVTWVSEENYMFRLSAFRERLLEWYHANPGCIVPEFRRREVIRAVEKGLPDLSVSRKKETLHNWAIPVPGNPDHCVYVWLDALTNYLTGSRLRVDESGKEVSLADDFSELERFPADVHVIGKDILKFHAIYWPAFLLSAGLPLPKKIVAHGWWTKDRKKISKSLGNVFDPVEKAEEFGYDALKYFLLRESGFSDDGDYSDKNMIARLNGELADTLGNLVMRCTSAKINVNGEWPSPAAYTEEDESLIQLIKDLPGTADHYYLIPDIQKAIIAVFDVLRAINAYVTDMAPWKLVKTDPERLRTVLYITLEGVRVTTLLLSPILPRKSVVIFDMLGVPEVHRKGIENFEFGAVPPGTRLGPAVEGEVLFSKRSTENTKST

[17] = HEp-2 cell cytotoxicity, dose response, cytotoxicity control for RSV inhibitor project, HTS (AID 2410); type: functional; settings: human respiratory syncytial virus
[18] = Counterscreen for inhibitors of Trypanosoma brucei methionyl tRNA synthetase (MetRS): Luminescence-based cell-based high throughput dose response assay to identify compounds that are cytotoxic to Jurkat human T lymphocyte cells.; type: functional
[19] = biological target: T1, Methionyl-tRNA synthetase, putative; type: functional, Trypanosoma brucei brucei strain 927/4 GUTat10.1; remark: listed apart in the source
[20] = biological target: T2, Sentrin-specific protease 8 (Homo sapiens, UniProt Q96LD8); type: functional
T2 sequence (Q96LD8 whole entry): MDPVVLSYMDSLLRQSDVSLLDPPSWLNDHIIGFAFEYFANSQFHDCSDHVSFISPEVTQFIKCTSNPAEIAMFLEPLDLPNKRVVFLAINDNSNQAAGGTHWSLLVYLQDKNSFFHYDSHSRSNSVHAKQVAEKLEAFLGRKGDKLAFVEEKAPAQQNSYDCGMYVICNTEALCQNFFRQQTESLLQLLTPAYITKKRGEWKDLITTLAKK

[21] = biological target: T3, Caspase-3 (Homo sapiens, UniProt P42574); assay: Dose-response confirmation of uHTS inhibitor hits of Sentrin-Specific Protease 8 in a Caspase-3 Fluorescence assay.; type: functional
T3 sequence (P42574 whole entry): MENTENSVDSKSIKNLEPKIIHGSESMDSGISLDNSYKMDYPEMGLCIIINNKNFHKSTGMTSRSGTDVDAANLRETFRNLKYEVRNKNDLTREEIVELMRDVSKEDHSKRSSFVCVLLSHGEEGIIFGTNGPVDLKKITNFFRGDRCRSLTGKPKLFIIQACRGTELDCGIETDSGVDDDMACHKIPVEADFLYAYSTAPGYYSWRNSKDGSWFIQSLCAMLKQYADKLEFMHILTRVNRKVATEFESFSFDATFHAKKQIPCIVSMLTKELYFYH

[22] = biological target: T2, Sentrin-specific protease 8; type: functional; remark: listed apart in the source
[23] = biological target: SWI/SNF-related matrix-associated actin-dependent regulator of chromatin subfamily A member 2 (Homo sapiens, UniProt P51531); assay: Luminescence-based cell-based high throughput dose response assay to identify activators of the function of SWI/SNF related, matrix associated, actin dependent regulator of chromatin, subfamily a, member 2 (SMARCA2, BRM).; type: functional
Sequence of SWI/SNF-related matrix-associated actin-dependent regulator of chromatin subfamily A member 2 (P51531 whole entry): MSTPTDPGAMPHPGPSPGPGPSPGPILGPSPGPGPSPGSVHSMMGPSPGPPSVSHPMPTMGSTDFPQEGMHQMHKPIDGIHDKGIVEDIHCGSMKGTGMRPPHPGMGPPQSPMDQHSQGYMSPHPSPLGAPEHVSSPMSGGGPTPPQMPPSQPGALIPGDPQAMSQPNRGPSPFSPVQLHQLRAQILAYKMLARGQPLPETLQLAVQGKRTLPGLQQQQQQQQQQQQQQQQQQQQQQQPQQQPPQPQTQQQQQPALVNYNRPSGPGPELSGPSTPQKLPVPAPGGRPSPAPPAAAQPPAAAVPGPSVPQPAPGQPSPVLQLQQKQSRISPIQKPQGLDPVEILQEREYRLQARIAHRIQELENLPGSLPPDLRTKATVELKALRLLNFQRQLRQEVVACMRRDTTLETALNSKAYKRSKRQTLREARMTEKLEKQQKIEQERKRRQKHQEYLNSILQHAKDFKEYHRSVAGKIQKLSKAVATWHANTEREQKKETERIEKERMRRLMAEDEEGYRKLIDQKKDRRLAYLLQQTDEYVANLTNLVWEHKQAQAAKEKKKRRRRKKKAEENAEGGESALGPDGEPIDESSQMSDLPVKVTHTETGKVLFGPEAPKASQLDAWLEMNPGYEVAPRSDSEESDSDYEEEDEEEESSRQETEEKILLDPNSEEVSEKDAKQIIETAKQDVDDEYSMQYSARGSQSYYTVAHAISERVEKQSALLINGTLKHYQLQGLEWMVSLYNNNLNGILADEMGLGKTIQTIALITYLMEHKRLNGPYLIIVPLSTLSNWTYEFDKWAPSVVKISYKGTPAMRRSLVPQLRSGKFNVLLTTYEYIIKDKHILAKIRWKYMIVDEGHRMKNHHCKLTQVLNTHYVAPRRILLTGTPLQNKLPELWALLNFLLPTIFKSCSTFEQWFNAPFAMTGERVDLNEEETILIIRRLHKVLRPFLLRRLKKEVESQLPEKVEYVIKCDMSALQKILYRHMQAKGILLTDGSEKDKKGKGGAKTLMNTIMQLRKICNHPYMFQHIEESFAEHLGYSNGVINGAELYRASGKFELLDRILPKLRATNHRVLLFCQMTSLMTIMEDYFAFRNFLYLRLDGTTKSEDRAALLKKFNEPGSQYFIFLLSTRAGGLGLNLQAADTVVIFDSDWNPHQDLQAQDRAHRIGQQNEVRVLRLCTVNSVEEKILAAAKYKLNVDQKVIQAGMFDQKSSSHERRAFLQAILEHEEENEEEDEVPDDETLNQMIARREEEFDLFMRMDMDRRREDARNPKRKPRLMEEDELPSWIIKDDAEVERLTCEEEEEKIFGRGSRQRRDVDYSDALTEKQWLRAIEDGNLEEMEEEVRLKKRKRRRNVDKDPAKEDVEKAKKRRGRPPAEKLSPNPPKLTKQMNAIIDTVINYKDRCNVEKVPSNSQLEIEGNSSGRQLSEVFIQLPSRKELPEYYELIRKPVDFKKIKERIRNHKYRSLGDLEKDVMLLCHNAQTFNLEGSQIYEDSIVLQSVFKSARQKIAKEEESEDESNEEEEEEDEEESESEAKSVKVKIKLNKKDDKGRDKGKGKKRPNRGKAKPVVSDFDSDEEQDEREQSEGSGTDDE

[24] = Counterscreen for activators of the function of SWI/SNF related, matrix associated, actin dependent regulator of chromatin, subfamily a, member 2 (SMARCA2, BRM): Luminescence-based cell-based high throughput dose response assay to identify non-selective compounds using the VP16 reporter assay.; type: functional
[25] = biological target: T4, Sentrin-specific protease 1 (Homo sapiens, UniProt Q9P0U3); assay: Dose response confirmation of small molecule inhibitors of the catalytic domain of the SUMO protease, SENP1 in a FRET assay.; type: functional; settings: read-out: IC50_Mean
T4 sequence (Q9P0U3 whole entry): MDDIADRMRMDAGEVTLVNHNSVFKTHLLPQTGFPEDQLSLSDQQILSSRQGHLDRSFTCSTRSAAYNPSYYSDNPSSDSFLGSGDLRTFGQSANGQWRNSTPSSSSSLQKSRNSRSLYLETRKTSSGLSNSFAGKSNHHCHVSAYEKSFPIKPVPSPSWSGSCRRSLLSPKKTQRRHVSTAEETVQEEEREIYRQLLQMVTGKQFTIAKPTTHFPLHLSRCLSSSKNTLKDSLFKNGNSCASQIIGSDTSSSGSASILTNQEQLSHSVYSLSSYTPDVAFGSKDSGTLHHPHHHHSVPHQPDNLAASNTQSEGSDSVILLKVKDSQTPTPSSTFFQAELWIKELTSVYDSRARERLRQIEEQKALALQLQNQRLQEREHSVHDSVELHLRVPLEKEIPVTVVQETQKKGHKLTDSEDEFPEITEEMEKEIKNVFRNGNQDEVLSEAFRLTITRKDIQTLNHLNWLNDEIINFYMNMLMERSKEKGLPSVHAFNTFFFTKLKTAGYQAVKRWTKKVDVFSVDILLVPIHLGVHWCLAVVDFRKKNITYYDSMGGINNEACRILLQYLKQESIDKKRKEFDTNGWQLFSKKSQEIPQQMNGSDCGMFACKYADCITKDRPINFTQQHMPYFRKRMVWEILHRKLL

[26] = biological target: T5, Long-chain-fatty-acid--AMP ligase FadD28 (Mycobacterium tuberculosis, UniProt P9WQ59); assay: Fluorescence polarization aasay to screen for inhibitors that compete for the binding of FadD28 to a bisubstrate Measured in Biochemical System Using Plate Reader - 2147-01_Inhibitor_Dose_CherryPick_Activity.; type: functional, Mycobacterium tuberculosis H37Rv
T5 sequence (P9WQ59 whole entry): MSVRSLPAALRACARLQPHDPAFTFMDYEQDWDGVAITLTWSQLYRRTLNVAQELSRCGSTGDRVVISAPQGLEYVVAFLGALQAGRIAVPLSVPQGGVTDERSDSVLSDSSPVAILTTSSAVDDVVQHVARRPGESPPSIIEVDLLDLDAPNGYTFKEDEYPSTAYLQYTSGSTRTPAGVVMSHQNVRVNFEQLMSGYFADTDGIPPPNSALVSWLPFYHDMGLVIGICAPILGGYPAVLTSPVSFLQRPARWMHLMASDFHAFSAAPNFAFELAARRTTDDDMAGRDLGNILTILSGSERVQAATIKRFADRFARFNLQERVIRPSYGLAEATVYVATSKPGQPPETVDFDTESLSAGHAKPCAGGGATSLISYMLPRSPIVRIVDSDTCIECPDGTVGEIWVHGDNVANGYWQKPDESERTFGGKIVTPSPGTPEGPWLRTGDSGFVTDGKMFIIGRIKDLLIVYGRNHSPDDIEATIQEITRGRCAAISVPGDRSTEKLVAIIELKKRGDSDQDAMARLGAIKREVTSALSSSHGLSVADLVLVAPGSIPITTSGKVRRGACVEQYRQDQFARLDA

[27] = biological target: T4, Sentrin-specific protease 1; assay: potency of human SENP1 inhibitors, dose response, biochemical, kinetic FRET (AID 651697); type: functional; settings: read-out: IC50_Mean
[28] = biological target: T6, Small ubiquitin-related modifier 1 (Homo sapiens, UniProt P63165); assay: inhibitors of SUMO1 partner interactions, dose response, biochemical, FRET (AID 624383); type: functional; settings: read-out: IC50_Mean
T6 sequence (P63165 whole entry): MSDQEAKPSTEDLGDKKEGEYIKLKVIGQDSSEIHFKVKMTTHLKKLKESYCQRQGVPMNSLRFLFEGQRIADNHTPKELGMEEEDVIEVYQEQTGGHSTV

[29] = biological target: T6, Small ubiquitin-related modifier 1; assay: inhibitors of SUMO1 peptide binding, dose response, biochemical, fluorescence polarization, uHTS hits (AID 624382); type: functional; settings: read-out: IC50_Mean
[30] = biological target: Hepatocyte nuclear factor 4-alpha (Homo sapiens, UniProt P41235); type: functional, cell-based;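 further: biochemical luminescence-based dose-response counterscreen measuring inhibition of HNF4 dimerization, run alongside a screen for blockers of ABHD5–perilipin-5 interaction; split luciferase complementation of HNF4 fusion proteins in cell lysate measuring dimerization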
Sequence of Hepatocyte nuclear factor 4-alpha (P41235 whole entry, the tested form may be a part): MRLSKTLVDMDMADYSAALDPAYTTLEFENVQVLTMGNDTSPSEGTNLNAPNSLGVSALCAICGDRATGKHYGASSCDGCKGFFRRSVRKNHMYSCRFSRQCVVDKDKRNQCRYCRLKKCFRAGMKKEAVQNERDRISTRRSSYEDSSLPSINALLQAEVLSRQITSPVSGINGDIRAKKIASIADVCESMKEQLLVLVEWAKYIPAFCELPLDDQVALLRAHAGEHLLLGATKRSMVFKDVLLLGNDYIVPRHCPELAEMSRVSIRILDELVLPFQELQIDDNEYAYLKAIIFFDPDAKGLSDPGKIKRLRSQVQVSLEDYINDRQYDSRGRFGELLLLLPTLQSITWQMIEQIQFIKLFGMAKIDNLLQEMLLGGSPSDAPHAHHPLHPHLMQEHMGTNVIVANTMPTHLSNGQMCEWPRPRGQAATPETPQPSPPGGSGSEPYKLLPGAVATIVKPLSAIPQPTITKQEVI

[31] = HEK293 cell viability, dose response, counter-screen for EBV LMP1 inhibitor project, dry powder, set 2 (AID 624374); type: functional
[32] = test system: Cryptococcus neoformans; assay: PubChem AID 686997; type: functional, organism-based; settings: Cryptococcus neoformans
[33] = biological target: Paired box protein Pax-8 (Homo sapiens, UniProt Q06710); assay: inhibitors of PAX8-driven TPO luciferase reporter, dose response, RMG-I cells, cherry-pick (AID 687027); type: functional, cell-based;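 further: luciferase reporter driven by Pax8 target thyroperoxidase promoter measured by SteadyGlo luminescence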
Sequence of Paired box protein Pax-8 (Q06710 whole entry): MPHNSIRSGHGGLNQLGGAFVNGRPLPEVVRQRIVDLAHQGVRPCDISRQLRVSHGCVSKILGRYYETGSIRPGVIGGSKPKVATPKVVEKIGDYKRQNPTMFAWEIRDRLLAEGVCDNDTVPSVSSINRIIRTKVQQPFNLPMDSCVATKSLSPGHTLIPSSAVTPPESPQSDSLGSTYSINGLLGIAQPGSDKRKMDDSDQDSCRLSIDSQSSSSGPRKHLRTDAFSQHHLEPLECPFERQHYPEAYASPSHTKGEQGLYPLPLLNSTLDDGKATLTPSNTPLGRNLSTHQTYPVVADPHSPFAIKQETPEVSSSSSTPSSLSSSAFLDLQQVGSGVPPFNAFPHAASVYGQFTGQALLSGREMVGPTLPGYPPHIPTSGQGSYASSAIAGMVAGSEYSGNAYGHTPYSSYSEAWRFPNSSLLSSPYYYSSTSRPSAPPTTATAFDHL

[34] = test system: Cryptococcus neoformans; assay: Cryptococcus growth inhibition by alamar blue – cell lysis, cherry-picks, replicate tests, mechanism study for C. neoformans antifungal project, dose response (AID 686999); type: functional, organism-based
[35] = test system: HeLa; assay: HeLa cell cytotoxicity, dose response, cytotoxicity control, ATP luminescence, cherry-pick samples (AID 687004); type: functional, cell-based; settings: Homo sapiens

Sequence of Mu-type opioid receptor (P35372 whole entry): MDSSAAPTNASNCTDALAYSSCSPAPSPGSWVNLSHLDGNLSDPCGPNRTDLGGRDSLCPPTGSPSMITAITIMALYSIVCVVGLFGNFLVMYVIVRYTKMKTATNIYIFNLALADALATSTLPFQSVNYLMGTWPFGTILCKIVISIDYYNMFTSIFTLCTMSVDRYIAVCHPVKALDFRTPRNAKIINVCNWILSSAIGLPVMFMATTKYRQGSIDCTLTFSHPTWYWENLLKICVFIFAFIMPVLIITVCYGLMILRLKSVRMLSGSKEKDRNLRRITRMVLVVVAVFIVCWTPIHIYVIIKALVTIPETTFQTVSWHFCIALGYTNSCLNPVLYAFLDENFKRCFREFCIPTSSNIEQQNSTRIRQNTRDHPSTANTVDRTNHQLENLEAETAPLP

SMILES: Cc1cccc(CN2CCN(c3ncccn3)CC2)c1
- EC50 [1]: 92.5 µM (inactive)
- EC50 [2]: 0.182 µM (active)

SMILES: O=C(Nc1nc2ccccc2[nH]1)c1ccccc1F
- EC50 [3]: 1.13 µM (active)
- EC50 [4]: 1.19 µM (active)
- AC50 [5]: 6.83 µM (active)
- AC50 [6]: 3.06 µM (active)
- CC50 [7]: 8.56 µM (active)
- EC50 [8]: 2.44 µM (active)
- EC50 [9]: 6.85 µM (inconclusive)
- EC50 [10]: 1.86 µM (active)
- AC50 [11]: 6.17 µM (active)
- AC50 [12]: 3.82 µM (active)
- EC50 [13]: 2.23 µM (active)
- EC50 [14]: > 133 µM (inactive)
- AC50 [15]: 5.17 µM (active)

SMILES: O=C(NCc1nc2ccccc2[nH]1)C1=C[C@H](c2ccc3c(c2)OCO3)C[C@H](OCc2ccc(CO)cc2)O1
- IC50 [16]: 8.12 µM (active)
- CC50 [17]: > 50 µM (active)
- IC50 [18]: 83.3 µM (inactive)
- IC50 [19]: 2.79 µM (active)

SMILES: O=C1/C(=C/NCCc2ccccc2)c2ccccc2C(=O)N1Cc1ccccc1
- IC50 [20]: 10.9 µM (active)
- IC50 [21]: 83.2 µM (inactive)
- IC50 [22]: 4.54 µM (active)

SMILES: O=C(c1n[nH]cc1-c1cccc(Br)c1)C1CO1 (stereo not given)
- EC50 [23]: > 91.2 µM (inactive)
- EC50 [24]: > 91.2 µM (inactive)

SMILES: COc1cc(/C=C2\CCCc3c2nc2ccccc2c3C(=O)O)cc(Br)c1O
- IC50 [25]: 2.85 µM (active)
- AC50 [26]: 63.8 µM (active)
- IC50 [27]: 3.84 µM (active)

SMILES: CCn1c(SCC(=O)NC(=O)NCc2ccco2)nc2sc(C)c(C)c2c1=O
- IC50 [28]: 21.9 µM (inactive)
- IC50 [29]: > 66.6 µM (inactive)

SMILES: COc1cccc(-c2cnc3c(NC=O)cc(-c4ccc(N5CCN(C)CC5)cc4)cn23)c1
- EC50 [23]: > 10.1 µM (inactive)
- EC50 [24]: > 91.2 µM (inactive)

SMILES: O=C(NC1CCCCC1)C(c1ccnc2ccccc12)N1CCc2ccccc2C1 (stereo not given)
- IC50 [20]: 2.31 µM (active)
- IC50 [21]: 9.26 µM (active)
- IC50 [22]: 17.5 µM (active)

SMILES: O=C(NCc1ccccc1)C(c1cc2ccccc2o1)n1c(=O)c(-c2ccco2)nc2ccccc21 (stereo not given)
- IC50 [30]: 3.07 µM (active)

SMILES: O=C(Cc1ccccn1)NCC[C@@H]1CC[C@H](NC(=O)Nc2ccc(Cl)cc2)[C@H](CO)O1
- AbsAC35 [31]: 154.48 µM

SMILES: CC[C@H](C)[C@@H]1NC(=O)CNC(=O)c2csc(n2)[C@H](C(C)(C)O)OC(=O)C(C)(C)[C@H](CCCC(C)(Cl)Cl)OC(=O)c2csc1n2 [LYNGBYABELLIN A]
- AC50 [32]: 2.72 µM (active)
- AC50 [33]: < 0.26 µM (active)
- AC50 [34]: 2.1 µM (active)
- AC50 [35]: < 0.195 µM (active)
